Where a name gives a salt, the structure may show the parent alone.

One assay concerns B cells. The experiment in a line: B cell proliferation assay (Example B1). In kind it is cell-based. Particulars: B-cell; purified human B cells, anti-human IgM, [3H]-thymidine. As for the experimental part: To acquire B cells, human PBMC were isolated from the peripheral blood of normal, drug free donors by standard density gradient centrifugation on Ficoll-Hypague (GE Healthcare, Piscataway, N.J.) and incubated with anti-CD19 microbeads (Miltenyi Biotech, Auburn, Calif.). The B cells were then purified by positive immunosorting using an autoMacs (Miltenyi Biotech) according to the manufacturer's instruction.
The purified B cells (2×10^5/well/200 μL) were cultured in 96-well ultra-low binding plates (Corning, Corning, N.Y.) in RPMI1640, 10% FBS and goat F(ab′)2 anti-human IgM ([…]) (Invitrogen, Carlsbad, Calif.), in the presence of different amount of test compounds, […] [^3H]-thymidine (1 μCi/well) (PerkinElmer, Boston, Mass.) in PBS was then added to the B cell cultures for an additional 12 hrs before the incorporated radioactivity was separated by filtration with water through GF/B filters (Packard Bioscience, Meriden, Conn.) and measured by liquid scintillation counting with a TopCount (Packard Bioscience). […] See Table 2 for data related to compounds of the invention.

Assay [1] concerns Pfeiffer cell line (diffuse large B cell lymphoma). The experiment in a line: Pfeiffer cell proliferation assay (Example B2). Particulars: Homo sapiens, Pfeiffer, Pfeiffer cells, [3H]-thymidine. It is filed as cell-based. Here is the method: Pfeiffer cell line (diffuse large B cell lymphoma) was purchased from ATCC (Manassas, Va.) and maintained in the culture medium recommended (RPMI and 10% FBS). To measure the anti-proliferation activity of the PI3Kδ submittals, the Pfeiffer cells were plated with the culture medium (2×10^3 cells/well/per 200 μl) into 96-well ultra-low binding plates (Corning, Corning, N.Y.), in the presence or absence of a concentration range of test compounds. After 3-4 days, [^3H]-thymidine (1 μCi/well) (PerkinElmer, Boston, Mass.) in PBS was then added to the cell culture for an additional 12 hrs before the incorporated radioactivity was separated by filtration with water through GF/B filters (Packard Bioscience, Meridenj, Conn.) and measured by liquid scintillation counting with a TopCount (Packard Bioscience). See Table 3 for data related to compounds of the invention.

`Cc1cccc2nc(C(C)Nc3ncnc4[nH]cnc34)c(-c3cccc(F)c3)c(=O)n12` (single isomer, unassigned) [Example 71, 3-(3-Fluorophenyl)-6-methyl-2-[1-(9H-purin-6-ylamino)ethyl]-4H-pyrido[1,2-a]pyrimidin-4-one trifluoroacetic acid salt]: in the assay on B cells, the IC50 (usually the concentration needed to halve the response being measured) was below 50 nM. Regarding `Cc1cccc2nc(C(C)n3cnc4c(N)ncnc43)c(-c3ccccc3)c(=O)n12` (centres unmarked) [Example 1, 2-[1-(6-amino-9H-purin-9-yl)ethyl]-6-methyl-3-phenyl-4H-pyrido[1,2-a]pyrimidin-4-one], the figures for the IC50 (with B cells; in assay [1]) were below 50 nM and 100 to 500 nM, respectively. Regarding `CCC(Nc1ncnc2[nH]cnc12)c1nc2cccc(C)n2c(=O)c1-c1ccccc1` (centres unmarked) [Example 2, 6-methyl-3-phenyl-2-[1-(9H-purin-6-ylamino)propyl]-4H-pyrido[1,2-a]pyrimidin-4-one], the values for the IC50 (in the assay on B cells; in assay [1]) were 100 to 500 nM and below 50 nM, respectively. As to `CCC(Nc1ncnc2[nH]cnc12)c1nc2cccc(C)n2c(=O)c1-c1cncc(F)c1` (centres unmarked) [Example 3, 3-(5-fluoropyridin-3-yl)-6-methyl-2-[1-(9H-purin-6-ylamino)propyl]-4H-pyrido[1,2-a]pyrimidin-4-one], the IC50 was below 50 nM in the assay on B cells and 100 to 500 nM in assay [1].

In the case of `CCC(Nc1ncnc2[nH]cnc12)c1nc2cccc(C)n2c(=O)c1-c1cccc(F)c1` (centres unmarked) [Example 4, 3-(3-fluorophenyl)-6-methyl-2-[1-(9H-purin-6-ylamino)propyl]-4H-pyrido[1,2-a]pyrimidin-4-one], the IC50 in the assay on B cells was below 50 nM; in assay [1], 100 to 500 nM. Taken in the same sequence, the figures for `CCC(Nc1ncnc2[nH]cnc12)c1nc2cccc(C)n2c(=O)c1-c1cc(F)cc(F)c1` (centres unmarked) [Example 5, 3-(3,5-difluorophenyl)-6-methyl-2-[1-(9H-purin-6-ylamino)propyl]-4H-pyrido[1,2-a]pyrimidin-4-one] were below 50 nM and 50 to 100 nM. For the compound `Cc1csc2nc(C(C)Nc3nc(N)nc4[nH]cnc34)c(-c3cc(F)cc(F)c3)c(=O)n12` (centres unmarked) [Example 13, 7-{1-[(2-amino-9H-purin-6-yl)amino]ethyl}-6-(3,5-difluorophenyl)-3-methyl-5H-[1,3]thiazolo[3,2-a]pyrimidin-5-one], the IC50 in the assay on B cells was below 50 nM.

Compound `Cc1csc2nc([C@H](C)Nc3ncnc4[nH]cnc34)c(-c3cccc(F)c3)c(=O)n12` [Example 15, (S)-7-(1-(9H-purin-6-ylamino)ethyl)-6-(3-fluorophenyl)-3-methyl-5H-thiazolo[3,2-a]pyrimidin-5-one] yielded an IC50 with B cells below 50 nM. As for `Cc1cccc2nc(C(C)Nc3nc(N)nc4[nH]cnc34)c(-c3cccc(Cl)c3)c(=O)n12` (centres unmarked) [Example 54, 2-{1-[(2-Amino-9H-purin-6-yl)amino]ethyl}-3-(3-chlorophenyl)-6-methyl-4H-pyrido[1,2-a]pyrimidin-4-one trifluoroacetic acid salt], in assay [1], the IC50 lay within 50 to 100 nM.

In assay [1], `Cc1cccc2nc(C(C)Nc3ncnc4[nH]cnc34)c(-c3ccccc3Cl)c(=O)n12` (centres unmarked) [Example 57, 3-(2-Chlorophenyl)-6-methyl-2-[1-(9H-purin-6-ylamino)ethyl]-4H-pyrido[1,2-a]pyrimidin-4-one trifluoroacetic acid salt] yielded an IC50 of 50 to 100 nM. Still for that read-out and setting: with `Cc1cccc2nc(C(C)Nc3nc(N)nc4[nH]cnc34)c(-c3ccccc3Cl)c(=O)n12` (centres unmarked) [Example 58, 2-{1-[(2-Amino-9H-purin-6-yl)amino]ethyl}-3-(2-chlorophenyl)-6-methyl-4H-pyrido[1,2-a]pyrimidin-4-one trifluoroacetic acid salt] the figure was below 50 nM; with `Cc1cccc2nc(C(C)Nc3ncnc4[nH]cnc34)c(-c3ccccc3F)c(=O)n12` (centres unmarked) [Example 59, 3-(2-Fluorophenyl)-6-methyl-2-[1-(9H-purin-6-ylamino)ethyl]-4H-pyrido[1,2-a]pyrimidin-4-one trifluoroacetic acid salt], 100 to 500 nM. `Cc1cccc2nc(C(C)Nc3nc(N)nc4[nH]cnc34)c(-c3ccccc3F)c(=O)n12` (centres unmarked) [Example 60, 2-{1-[(2-Amino-9H-purin-6-yl)amino]ethyl}-3-(2-fluorophenyl)-6-methyl-4H-pyrido[1,2-a]pyrimidin-4-one trifluoroacetic acid salt]: the IC50 in assay [1] is 50 to 100 nM. Still for that read-out and setting: with `Cc1cccc2nc(C(C)Nc3nc(N)nc4[nH]cnc34)c(-c3ccc(C#N)cc3)c(=O)n12` (centres unmarked) [Example 62, 4-(2-{1-[(2-Amino-9H-purin-6-yl)amino]ethyl}-6-methyl-4-oxo-4H-pyrido[1,2-a]pyrimidin-3-yl)benzonitrile trifluoroacetic acid salt] the figure was 500 to 1000 nM; with `Cc1ccccc1-c1c(C(C)Nc2ncnc3[nH]cnc23)nc2cccc(C)n2c1=O` (centres unmarked) [Example 63, 6-Methyl-3-(2-methylphenyl)-2-[1-(9H-purin-6-ylamino)ethyl]-4H-pyrido[1,2-a]pyrimidin-4-one trifluoroacetic acid salt], 100 to 500 nM. On the same count and under the same terms, then `Cc1ccc(-c2c(C(C)Nc3ncnc4[nH]cnc34)nc3cccc(C)n3c2=O)cc1` (centres unmarked) [Example 64, 6-Methyl-3-(4-methylphenyl)-2-[1-(9H-purin-6-ylamino)ethyl]-4H-pyrido[1,2-a]pyrimidin-4-one trifluoroacetic acid salt], with 50 to 100 nM; and `COc1cccc(-c2c(C(C)Nc3ncnc4[nH]cnc34)nc3cccc(C)n3c2=O)c1` (centres unmarked) [Example 65, 3-(3-Methoxyphenyl)-6-methyl-2-[1-(9H-purin-6-ylamino)ethyl]-4H-pyrido[1,2-a]pyrimidin-4-one trifluoroacetic acid salt], with 50 to 100 nM. Regarding `Cc1cccc2nc(C(C)Nc3ncnc4[nH]cnc34)c(-c3cccc(F)c3F)c(=O)n12` (centres unmarked) [Example 66, 3-(2,3-Difluorophenyl)-6-methyl-2-[1-(9H-purin-6-ylamino)ethyl]-4H-pyrido[1,2-a]pyrimidin-4-one trifluoroacetic acid salt], the IC50 in assay [1] is 100 to 500 nM.

As to `Cc1cccc2nc(C(C)Nc3ncnc4[nH]cnc34)c(-c3cc(F)ccc3F)c(=O)n12` (centres unmarked) [Example 67, 3-(2,5-Difluorophenyl)-6-methyl-2-[1-(9H-purin-6-ylamino)ethyl]-4H-pyrido[1,2-a]pyrimidin-4-one trifluoroacetic acid salt], the IC50 in assay [1] fell in the range of 50 to 100 nM. Still for that read-out and setting: with `Cc1cccc2nc(C(C)Nc3ncnc4[nH]cnc34)c(-c3ccc(F)c(F)c3)c(=O)n12` (centres unmarked) [Example 68, 3-(3,4-Difluorophenyl)-6-methyl-2-[1-(9H-purin-6-ylamino)ethyl]-4H-pyrido[1,2-a]pyrimidin-4-one trifluoroacetic acid salt] the figure was 500 to 1000 nM; with `Cc1cccc2nc(C(C)Nc3ncnc4[nH]cnc34)c(-c3cc(F)cc(F)c3)c(=O)n12` (centres unmarked) [Example 69, 3-(3,5-Difluorophenyl)-6-methyl-2-[1-(9H-purin-6-ylamino)ethyl]-4H-pyrido[1,2-a]pyrimidin-4-one trifluoroacetic acid salt], 50 to 100 nM; with `CCc1cccc2nc(C(C)Nc3ncnc4[nH]cnc34)c(-c3cc(F)cc(F)c3)c(=O)n12` (centres unmarked) [Example 76, 3-(3,5-Difluorophenyl)-6-ethyl-2-[1-(9H-purin-6-ylamino)ethyl]-4H-pyrido[1,2-a]pyrimidin-4-one trifluoroacetic acid salt], 100 to 500 nM. Still for that read-out and setting: then `CCc1cccc2nc(C(C)Nc3nc(N)nc4[nH]cnc34)c(-c3cc(F)cc(F)c3)c(=O)n12` (centres unmarked) [Example 77, 2-{1-[(2-Amino-9H-purin-6-yl)amino]ethyl}-3-(3,5-difluorophenyl)-6-ethyl-4H-pyrido[1,2-a]pyrimidin-4-one trifluoroacetic acid salt], with below 50 nM. Still for that read-out and setting: with `CCc1cccc2nc(C(C)Nc3ncnc4[nH]cnc34)c(-c3ccc(F)cc3)c(=O)n12` (centres unmarked) [Example 78, 6-Ethyl-3-(4-fluorophenyl)-2-[1-(9H-purin-6-ylamino)ethyl]-4H-pyrido[1,2-a]pyrimidin-4-one trifluoroacetic acid salt] the figure was 100 to 500 nM; with `CC(Nc1nc(N)nc2[nH]cnc12)c1nc2ccccn2c(=O)c1-c1cc(F)cc(F)c1` (centres unmarked) [Example 80, 2-{1-[(2-Amino-9H-purin-6-yl)amino]ethyl}-3-(3,5-difluorophenyl)-4H-pyrido[1,2-a]pyrimidin-4-one trifluoroacetic acid salt], 100 to 500 nM; with `Cc1cccc2nc(C(C)Nc3ncnc4[nH]cnc34)c(-c3cccc(C#N)c3)c(=O)n12` (centres unmarked) [Example 83, 3-{6-Methyl-4-oxo-2-[1-(9H-purin-6-ylamino)ethyl]-4H-pyrido[1,2-a]pyrimidin-3-yl}benzonitrile trifluoroacetic acid salt], 100 to 500 nM. As for `Cc1cccc2nc(C(C)Nc3nc(N)nc4[nH]cnc34)c(-c3cccc(C#N)c3)c(=O)n12` (centres unmarked) [Example 84, 3-(2-{1-[(2-Amino-9H-purin-6-yl)amino]ethyl}-6-methyl-4-oxo-4H-pyrido[1,2-a]pyrimidin-3-yl)benzonitrile trifluoroacetic acid salt], the IC50 in assay [1] was in the range of 100 to 500 nM.
